Experimental findings from PubChem BioAssay AID1996 are described below.

Values after ≈ are worked out from the molar mass of the structure shown.

Broadly, the kinetic solubility is the concentration staying in solution when a stock, usually in DMSO, is diluted into the medium.

For the data set the following is noted: buffer; pH 7.4; 200.0 µM.
Take `CC(=O)Nc1ccc(NC(=O)C(C)OC(=O)C2CCC2)cc1` (stereo unspecified): the kinetic solubility was over 45.7 µg/mL. The molecule `CC(=O)C(c1ccccc1)C(c1ccccc1)C(C)[N+](=O)[O-]` (stereo unspecified) came in with a kinetic solubility of under 0.6 µg/mL. Molecule `CCN1CCN(S(=O)(=O)Cc2ccccc2Cl)CC1` displayed a kinetic solubility of over 45.4 µg/mL. The result for `CC(=O)CCc1oc2c([N+](=O)[O-])cccc2c1-c1ccc(C)o1` reads 2.8 µg/mL (≈ 8.94 µM); that for `O=C(COC(=O)CSc1ccc(Cl)cc1)Nc1ccccc1`, over 50.4 µg/mL; that for `Clc1ccccc1Nc1nc(-c2ccncc2)nc2ccccc12`, 0.8 µg/mL (≈ 2.4 µM). `COc1ccc(OC)c(Nc2c3ccccc3nc3ccccc23)c1`: the kinetic solubility stood at 12.2 µg/mL (≈ 36.9 µM). Turning to `Cc1ccc(N(CC(=O)NCC2CCCO2)S(=O)(=O)c2ccc(Cl)cc2)cc1C` (stereo unspecified), the solubility (kinetic) was found to be 40.2 µg/mL (≈ 92 µM). In turn, `COC(=O)/C(=C\C(=O)c1ccccc1)Nc1ccc(OC)cc1` yielded a solubility (kinetic) of 7.6 µg/mL (≈ 24.4 µM). Molecule `COc1ccc(C(=O)Nc2c(C)cc(C)cc2C)cc1OC` registered a solubility (kinetic) of over 44.9 µg/mL. Regarding `O=C(COC(=O)/C=C/c1ccc([N+](=O)[O-])cc1)NCC1CCCCC1`, the kinetic solubility was determined as 1.5 µg/mL (≈ 4.33 µM). Take `CC1CN2C(c3ccc([N+](=O)[O-])cc3)=CSC2=N1` (stereo unspecified): the solubility (kinetic) stood at 26.3 µg/mL (≈ 101 µM). With `Cc1c(O)nc(SC2CC(=O)N(c3cc(Cl)cc(Cl)c3)C2=O)[nH]c1=O` (stereo unspecified) the figure was over 60 µg/mL; with `O=C(c1ccc([N+](=O)[O-])s1)N1CCc2ccccc21`, under 0.3 µg/mL; with `CNc1nccc(-c2ccc(Cl)cc2)c1C#N`, 1.5 µg/mL (≈ 6.16 µM). Molecule `Cc1ccccc1N1CCN(S(=O)(=O)c2cccs2)CC1` returned a kinetic solubility of 4 µg/mL (≈ 12.4 µM). The result for `COc1ccc(/C=C/C2=Nc3ccccc3NC(C)(C)C2)cc1OC` reads 43 µg/mL (≈ 128 µM); that for `Cc1cc(NC(=O)c2ccc(-c3ccccc3[N+](=O)[O-])o2)no1`, 6.7 µg/mL (≈ 21.4 µM); that for `COc1ccc(S(=O)(=O)N2CCC(C(=O)Oc3cccc(C)c3)CC2)cc1OC`, under 0.9 µg/mL. Molecule `Cc1ccc(N2C(=O)c3cccc([N+](=O)[O-])c3C2=O)cc1C` displayed a solubility (kinetic) of 23.3 µg/mL (≈ 78.6 µM). In turn, `CCOC(=O)Cc1csc(NC(=O)c2cc(=O)c3ccccc3o2)n1` displayed a solubility (kinetic) of 51.8 µg/mL (≈ 145 µM). Regarding `COc1ccc(S(=O)(=O)N2c3ccc(F)cc3CCC2C)cc1` (stereo unspecified), the kinetic solubility amounted to 3.2 µg/mL (≈ 9.54 µM). For the molecule `CCOC(=O)C1CCN(S(=O)(=O)c2ccccc2[N+](=O)[O-])CC1`, the solubility (kinetic) amounted to 44.1 µg/mL (≈ 129 µM). With `O=C1CSC(c2ccccc2F)N1` (stereo unspecified), the solubility (kinetic) is over 29.6 µg/mL. Turning to `Fc1ccccc1NC(=S)NCCc1cccc(Cl)c1`, the kinetic solubility is 36.7 µg/mL (≈ 119 µM). In turn, `O=C(c1cc2ccccc2oc1=O)N1CCOCC1` had a solubility (kinetic) of over 38.9 µg/mL.

Regarding `Cc1oc(C(C)(C)C)c(CN2CCOCC2)c1C(=O)O.Cl`, the kinetic solubility is over 47.7 µg/mL.

Turning to `O=C1ON=C(c2ccccc2)/C1=C/c1cccnc1`, the solubility (kinetic) is 35.8 µg/mL (≈ 143 µM). The result for `O=C(COC(=O)c1ccccc1O)NCc1ccco1` reads over 41.3 µg/mL; that for `O=C(NCc1cccc(Cl)c1)c1ccc2ccccc2n1`, 3.6 µg/mL (≈ 12.1 µM).

For `CN1C(=O)c2ccc(NC(=O)C3CC3)cc2C1=O`, the solubility (kinetic) was 33.4 µg/mL (≈ 137 µM).

`Fc1ccccc1CNCCc1ccc2c(c1)OCO2` returned a solubility (kinetic) of 40.5 µg/mL (≈ 148 µM). The result for `COc1ccc2nc(SC)c(C#N)cc2c1` reads under 0.2 µg/mL; that for `Cc1ccc(OS(=O)(=O)c2ccc(N3C(=O)CCC3=O)cc2)cc1`, 18.3 µg/mL (≈ 53 µM); that for `O=S1(=O)CCN(Cc2ccc(F)cc2)CC1`, over 36.5 µg/mL.

Consider `CCOc1ccc(N/C=C/C(=O)c2cc(OC)c(OC)c(OC)c2)cc1`, for which the kinetic solubility was under 0.8 µg/mL. For `COc1ccc(C(=O)N2CCN(c3ncccn3)CC2)cc1[N+](=O)[O-]`, the kinetic solubility is 50.5 µg/mL (≈ 147 µM). Molecule `O=C(CC(c1ccccc1)c1ccccc1)Nc1ccc(O)cc1` came in with a kinetic solubility of 31.7 µg/mL (≈ 99.9 µM). The molecule `Cc1cc(C(=O)Nc2ccc(C#N)cc2)on1` registered a kinetic solubility of 10.3 µg/mL (≈ 45.3 µM). `CCOC(=O)C1CCCN(S(=O)(=O)Cc2ccc(Cl)cc2)C1` (stereo unspecified) showed a solubility (kinetic) of 51 µg/mL (≈ 147 µM). Take `CCN(c1ccccc1)S(=O)(=O)c1ccc(Cl)c(NC(=O)CNCc2ccccc2OC)c1`: the solubility (kinetic) came to 3.7 µg/mL (≈ 7.58 µM). With `COCCN(CCOC)C(=O)N1CCOCC1`, the kinetic solubility is over 36.9 µg/mL. `CCc1ccccc1S(=O)(=O)c1c(C)cc(C)nc1Cl` came in with a solubility (kinetic) of 24.3 µg/mL (≈ 78.4 µM). The result for `Cc1ccc(NC(=O)CCN2CC(C)OC(C)C2)cc1.Cl` (stereo unspecified) reads over 46.9 µg/mL; that for `CN1C(=O)N(C)C(c2ccccc2Cl)C2=C1CC(C)(C)CC2=O` (stereo unspecified), over 49.9 µg/mL. `COc1ccc(N(CC(=O)Nc2cccnc2)S(C)(=O)=O)cc1` had a solubility (kinetic) of over 50.3 µg/mL. Molecule `O=C(Nn1cnc2ccccc2c1=O)c1c(F)cccc1F` showed a solubility (kinetic) of over 45.2 µg/mL. As for `CC(NCCc1ccc(O)cc1)C(O)c1ccc(O)cc1.Cl` (stereo unspecified), the solubility (kinetic) is over 48.6 µg/mL. `C=CCn1c(N2CCOCC2)nc2c1c(=O)[nH]c(=O)n2C` came in with a solubility (kinetic) of over 43.7 µg/mL. For `O=C(COC(=O)c1ccc(F)cc1F)Nc1ncccn1`, the kinetic solubility was over 44 µg/mL.

For the molecule `O=C(CSC(=S)N1CCSCC1)c1ccc(Cl)cc1`, the solubility (kinetic) was under 0.7 µg/mL.
